# In patent publication US20230066946A1, “1,5-DIPHENYLPYRAZOLYL-3-OXYALKYL ACIDS AND 1-PHENYL-5-THIENYLPYRAZOLYL-3-OXYALKYL ACIDS AND THE USE THEREOF FOR CONTROL OF UNWANTED PLANT GROWTH” (Bayer Aktiengesellschaft, priority 2019, published 2023):
# Experiments:
# ECHCG [1] = experiment: Pre-emergence herbicidal action against ECHCG; assay type: in vivo, Echinochloa crus-galli; conditions: scored visually after about 3 weeks vs untreated controls, 100% = plants have died, 0% = like control plants
# In short: (§1)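 Pre-emergence, sandy loam, pots doubly sown. WP/EC formulations + 0.5% additive, 600 L/ha water, sprayed on soil surface; 1280 or 320 g/ha. Greenhouse ~3 wk; visual % effect vs untreated.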
# STEME [2] = experiment: Post-emergence herbicidal action against STEME; assay type: in vivo, Stellaria media; conditions: 1280 g/ha, visual rating about 3 weeks after treatment
# In short: (§2)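 Herbicidal effect, rated visually about 3 weeks after treatment as percent versus untreated controls. Test plants in sandy loam had received a foliar application at the one-leaf stage of 1280 or 320 g/ha, formulated as WP or EC with 0.5% additive in 600 litres per hectare water.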
# ECHCG [3] = experiment: Post-emergence herbicidal action against ECHCG; assay type: in vivo, Echinochloa crus-galli; conditions: 1280 g/ha, post-emergence at one-leaf stage, rated visually after about 3 weeks vs untreated controls
# Method: (§3) [table] Seeds of mono- and dicotyledonous weed plants are placed in plastic pots in sandy loam soil (twin sowing with one species each of mono- or dicotyledonous weed plants per pot), covered with soil and cultivated in a greenhouse under controlled growth conditions. 2 to 3 weeks after sowing, the test plants are treated at the one-leaf stage. The compounds of the invention, formulated in the form of wettable powders (WP) or as emulsion concentrates (EC), are applied to the green parts of the plants as aqueous suspension or emulsion with addition of 0.5% additive at a water application rate equivalent to 600 litres per hectare. After the test plants have been kept in the greenhouse under optimum growth conditions for about 3 weeks, the activity of the preparations is rated visually in comparison to untreated controls. For example, 100% activity=the plants have died, 0% activity=like control plants. Tables 5.1-5.16 below show the effects of selected compounds of the general formula (I) according to Tables 1 to 3 on various harmful plants at an application rate corresponding to 1280 or 320 g/ha, which have been obtained by the aforementioned experimental method.
# SETVI [4] = experiment: Post-emergence herbicidal action against SETVI; assay type: in vivo, Setaria viridis; conditions: 1280 g/ha, post-emergence at one-leaf stage, rated visually after about 3 weeks vs untreated controls
# In short: as §2
# SETVI [5] = experiment: Pre-emergence herbicidal action against SETVI; assay type: in vivo, Setaria viridis; conditions: 1280 g/ha, scored visually after about 3 weeks vs untreated controls
# In short: as §1
# MATIN [6] = experiment: Post-emergence herbicidal action against MATIN; assay type: in vivo, Matricaria inodora; conditions: visual rating about 3 weeks after treatment
# In short: as §2
# AMARE [7] = experiment: Pre-emergence herbicidal action against AMARE; assay type: in vivo, Amaranthus retroflexus; conditions: 1280 g/ha, scored visually after about 3 weeks vs untreated controls
# In short: as §1
# AMARE [8] = experiment: Post-emergence herbicidal action against AMARE; assay type: in vivo, Amaranthus retroflexus; conditions: 1280 g/ha, visual rating about 3 weeks after treatment
# In short: as §2
# harmful plants = experiment: Pre-emergence herbicidal action, summary of Tables 4.1-4.15; assay type: in vivo; conditions: result in words
# Text: (§4) Seeds of mono- and dicotyledonous weed plants are placed in plastic pots in sandy loam soil (doubly sown with one species each of mono- or dicotyledonous weed plants per pot) and covered with soil. The compounds of the invention, formulated in the form of wettable powders (WP) or as emulsion concentrates (EC), are then applied onto the surface of the covering soil as aqueous suspension or emulsion with addition of 0.5% additive at a water application rate equivalent to 600 litres per hectare. After the treatment, the pots are placed in a greenhouse and kept under good growth conditions for the trial plants. After about 3 weeks, the effect of the preparations is scored visually in comparison with untreated controls as percentages. For example, 100% activity=the plants have died, 0% activity=like control plants.
# Tables 4.1-4.15 below show the effects of selected compounds of the general formula (I) according to Tables 1 to 3 on various harmful plants at an application rate corresponding to 1280 or 320 g/ha, which have been obtained by the aforementioned experimental method.
# For example, compounds no. I-008, I-056, I-057, I-061, I-067, I-070 and I-072 applied by the pre-emergence method have very good action (80% to 100% herbicidal action) against harmful plants such as Alopecurus myosuroides, Amaranthus retroflexus, Matricaria inodora, Polygonum convolvulus, Setaria viridis and Stellaria media at an application rate of 1.28 kg of active substance or less per hectare.
# STEME [9] = experiment: Pre-emergence herbicidal action against STEME; assay type: in vivo, Stellaria media; conditions: 1280 g/ha, scored visually after about 3 weeks vs untreated controls
# In short: as §1
# MATIN [10] = experiment: Pre-emergence herbicidal action against MATIN; assay type: in vivo, Matricaria inodora; conditions: 1280 g/ha, scored visually after about 3 weeks vs untreated controls
# Text: as §4, with “control plants. [table] Tables 4.1-4.15 below show the effects of selected compounds of the general formula (I) according to Tables 1 to 3 on various harmful plants at an application rate corresponding to 1280 or 320 g/ha, which have been obtained by the aforementioned experimental method.” for “control plants.”
# VERPE = experiment: Post-emergence herbicidal action against VERPE; assay type: in vivo, Veronica persica; conditions: 320 g/ha, visual rating about 3 weeks after treatment
# Method: as §3
# VIOTR [11] = experiment: Pre-emergence herbicidal action against VIOTR; assay type: in vivo, Viola tricolor; conditions: 1280 g/ha, scored visually after about 3 weeks vs untreated controls
# Text: as §4, with “control plants. [table] Tables 4.1-4.15 below show the effects of selected compounds of the general formula (I) according to Tables 1 to 3 on various harmful plants at an application rate corresponding to 1280 or 320 g/ha, which have been obtained by the aforementioned experimental method.” for “control plants.”
# PHBPU = experiment: Post-emergence herbicidal action against PHBPU; assay type: in vivo, Pharbitis purpurea; conditions: 320 g/ha, visual rating about 3 weeks after treatment
# Method: as §3
# VIOTR [12] = experiment: Post-emergence herbicidal action against VIOTR; assay type: in vivo, Viola tricolor; conditions: 320 g/ha, visual rating about 3 weeks after treatment
# Method: as §3
Compound,Pre-emergence action at 1280 g/ha against ECHCG in % (ECHCG [1]) [%],Post-emergence action against STEME in % (STEME [2]) [%],Post-emergence action against ECHCG in % (ECHCG [3]) [%],Post-emergence action against SETVI in % (SETVI [4]) [%],Pre-emergence action against SETVI in % (SETVI [5]) [%],Post-emergence action against MATIN in % (MATIN [6]; 1280 g/ha) [%],Pre-emergence action against AMARE in % (AMARE [7]) [%],Post-emergence action against AMARE in % (AMARE [8]) [%],herbicidal efficacy against harmful plants in the case of pre-emergence treatment (harmful plants),Pre-emergence action against STEME in % (STEME [9]) [%],Pre-emergence action against MATIN in % (MATIN [10]) [%],Post-emergence action against VERPE in % (VERPE) [%],Pre-emergence action against VIOTR in % (VIOTR [11]) [%],Post-emergence action against MATIN in % (MATIN [6]; 320 g/ha) [%],Post-emergence action against PHBPU in % (PHBPU) [%],Post-emergence action against VIOTR in % (VIOTR [12]) [%]
COC(=O)CNC(=O)COc1nn(-c2ccc(F)cc2)c(-c2cccc(F)c2)c1Cl [III-027],100,90,90,100,90,100,100,90,good herbicidal efficacy,100,–,–,–,–,–,–
"CC(Oc1nn(-c2ccccc2)c(-c2ccc(F)cc2)c1Br)C(=O)O (centres unmarked) [I-138, 2-{[4-Bromo-5-(4-fluorophenyl)-1-phenyl-1H-pyrazol-3-yl]oxy}propanoic acid]",100,100,–,–,100,–,100,–,good herbicidal efficacy,100,–,–,–,–,–,–
COC(=O)COc1nn(-c2ccc(Cl)cc2)c(-c2cccc(F)c2)c1C#N [I-048],–,–,–,–,–,–,–,–,–,–,80,80,–,–,–,–
C#Cc1c(OCC(=O)OC)nn(-c2ccccc2)c1-c1ccc(F)cc1 [I-066],–,–,–,–,–,80,100,–,–,–,–,–,90,80,90,80
C#Cc1c(OCC(=O)OC)nn(-c2ccccc2F)c1-c1ccccc1 [I-063],–,–,–,80,100,80,80,–,–,80,–,–,100,–,–,90
NCc1ccccc1.O=C(O)COc1nn(-c2cccc(F)c2)c(-c2ccccc2)c1I [II-13],–,–,–,–,–,100,100,–,good herbicidal efficacy,90,–,–,–,–,–,–
